In patent US20110039762A1, “TARGETED ANTIMICROBIAL MOIETIES” (C3 JIAN, INC., priority 2009, published 2011):
“Also recorded” adds a separate entry of the source.

Legend:
MRSA = assay: Kill or inhibit growth/proliferation; morphology, biofilm and growth disruption (Tables 5, 6); format: cell-based, Methicillin-resistant Staphylococcus aureus; design: key: A: Peptide aggregates; B: Less hyphal formation; Clumps; Diffuse clumps and small polyps; F: Diffuse growth; H: Thin; I: Growth inhibition; Microcolony formation; Rippled; Small polyps; Thick; W: Halo formation on top, microlonies on bottom; also: test concentration or dose not given here
[1] = test system: microorganisms (e.g., bacteria, yeasts, fungi); assay: Targeting peptide binding to target microorganisms (Table 3); details: preferably 1x PBS
S. epidermidis = assay: Kill or inhibit growth/proliferation; morphology, biofilm and growth disruption (Tables 5, 6); format: cell-based, Staphylococcus epidermidis; design: key: A: Peptide aggregates; B: Less hyphal formation; Clumps; Diffuse clumps and small polyps; F: Diffuse growth; H: Thin; I: Growth inhibition; Microcolony formation; Rippled; Small polyps; Thick; W: Halo formation on top, microlonies on bottom; also: test concentration or dose not given here
C. jeikeium = assay: as above; format: cell-based, Corynebacterium jeikeium; design: key: A: Peptide aggregates; B: Less hyphal formation; Clumps; Diffuse clumps and small polyps; F: Diffuse growth; H: Thin; I: Growth inhibition; Microcolony formation; Rippled; Small polyps; Thick; W: Halo formation on top, microlonies on bottom
microorganisms = assay: Peptides having multiple activities (targeting/binding, antimicrobial, growth or phenotype altering)
Text: In certain embodiments, peptides described herein can have multiple activities. Thus for example, a peptide can have both binding/targeting activity and antimicrobial activity. Such peptides can be used, e.g., in a chimeric construct, for any or all of these properties. Thus, for example, a peptide designated “B” in Table 8 can be used as a targeting peptide. If it is also designated G or M it can also be used for antimicrobial activity.

[2] = microorganism the targeting peptide binds, binding in aqueous buffers varied by peptide solubility
[3] = microorganism(s) the targeting peptide binds, binding in aqueous buffers depending on peptide solubility
For Organism, effect in this document: test concentration or dose not given here.

Substance: ALDCSEQSVILWYETILDKIVGVIK [PF-028]
- Organism, effect (MRSA): MRSA (R)
- Target(s) [1, 2]: S. epidermidis and M. luteus and MRSA
- Organism, effect (S. epidermidis): S. epidermidis (M)
- Organism, effect (C. jeikeium): C. jeikeium (M)
- Activities (microorganisms): G B

Substance: PF-011: peptide having multiple activities (chain 1 MFCYYKQHKGDNFSIEEVKNIIADNEMKVN; chain 2 MFCYYKQHKGDNFSIEEVKNIIADNEMKVN; Peptide with targeting and/or antimicrobial activity)
- Organism, effect (MRSA): MRSA (R)
- Target(s) [1, 2]: M. luteus; also recorded: E. coli; also recorded: P. aeruginosa; also recorded: S. pneumoniae; also recorded: C. jeikeium
- Organism, effect (C. jeikeium): C. jeikeium (C)
- Activities (microorganisms): G B

Substance: PF-032 (RIVVPAHQSNMASTPNLSITP; Peptide with targeting and/or antimicrobial activity)
- Organism, effect (S. epidermidis): S. epidermidis (S)
- Organism, effect (C. jeikeium): C. jeikeium (C)

Substance: PF-046: peptide having multiple activities (chain 1 LDFYLTKHLTLML; chain 2 LDFYLTKHLTLML; Peptide with targeting and/or antimicrobial activity)
- Organism, effect (MRSA): MRSA (R)
- Target(s) [1, 2]: E. coli; also recorded: E. faecalis; also recorded: C. jeikeium
- Organism, effect (S. epidermidis): S. epidermidis (C)
- Organism, effect (C. jeikeium): C. jeikeium (R)
- Activities (microorganisms): G B

Substance: PF-048: peptide having multiple activities (chain 1 LYFAFKKYQERVNQAPNIEY; chain 2 LYFAFKKYQERVNQAPNIEY; Peptide with targeting and/or antimicrobial activity)
- Organism, effect (MRSA): MRSA (W)
- Target(s) [1, 2]: S. epidermidis and M. luteus and E. coli and MRSA and C. jeikeium and C. jejuni
- Organism, effect (S. epidermidis): S. epidermidis (D)
- Organism, effect (C. jeikeium): C. jeikeium (S)
- Activities (microorganisms): G B

Substance: PF-065: peptide having multiple activities (LEKNTRDNYFIHAIDRIYINTSKGLFPESELVAWG; Peptide with targeting and/or antimicrobial activity)
- Organism, effect (MRSA): MRSA (R)
- Target(s) [1, 2]: M. luteus and E. coli and P. aeruginosa and C. albicans and MRSA and S. pneumoniae and C. jeikeium and C. jejuni
- Organism, effect (S. epidermidis): S. epidermidis (D)
- Organism, effect (C. jeikeium): C. jeikeium (A)
- Activities (microorganisms): G B

Substance: PF-099: peptide having multiple activities (EIIAYLEGRFANA; Peptide with targeting and/or antimicrobial activity)
- Target(s) [1, 3]: S. epidermidis; also recorded: M. luteus; also recorded: E. coli; also recorded: C. jeikeium
- Organism, effect (S. epidermidis): S. epidermidis (D)
- Organism, effect (C. jeikeium): C. jeikeium (C)
- Activities (microorganisms): G B

Substance: PF-129: peptide having multiple activities (MKLLARDPWVCAWNDIW; Peptide with targeting and/or antimicrobial activity)
- Target(s) [1, 3]: S. epidermidis and MRSA and E. faecalis and C. jeikeium and C. jejuni
- Organism, effect (S. epidermidis): S. epidermidis (M)
- Organism, effect (C. jeikeium): C. jeikeium (R)
- Activities (microorganisms): G B

Substance: PF-135: peptide having multiple activities (PPARPARIPQTPTLHGASLFRQRS; Peptide with targeting and/or antimicrobial activity)
- Target(s) [1, 3]: S. epidermidis and M. luteus and E. coli and P. aeruginosa and MRSA and C. jeikeium and M. smegmatis
- Organism, effect (C. jeikeium): C. jeikeium (R)
- Activities (microorganisms): G B

Substance: PF-153: peptide having multiple activities (GILARADCSQIA; Peptide with targeting and/or antimicrobial activity)
- Target(s) [1, 3]: M. luteus and P. mirabilis and E. coli and MRSA
- Organism, effect (S. epidermidis): S. epidermidis (M)
- Organism, effect (C. jeikeium): C. jeikeium (C)
- Activities (microorganisms): G B

Substance: PF-164: peptide having multiple activities (EEVSRALAGIGLGLGCRIG; Peptide with targeting and/or antimicrobial activity)
- Target(s) [1, 3]: S. epidermidis; also recorded: M. luteus; also recorded: E. coli; also recorded: C. jeikeium
- Organism, effect (C. jeikeium): C. jeikeium (R)
- Activities (microorganisms): G B

Substance: PF-173: peptide having multiple activities (AGRTAIVQGGG; Peptide with targeting and/or antimicrobial activity)
- Target(s) [1, 3]: S. epidermidis; also recorded: M. luteus; also recorded: P. mirabilis; also recorded: E. coli; also recorded: P. aeruginosa; also recorded: C. albicans; also recorded: C. jeikeium; also recorded: C. jejuni
- Organism, effect (S. epidermidis): S. epidermidis (A)
- Organism, effect (C. jeikeium): C. jeikeium (D)
- Activities (microorganisms): G B

Substance: PF-186: peptide having multiple activities (DADKNLSLERDRFAWRVAAP; Peptide with targeting and/or antimicrobial activity)
- Target(s) [1, 3]: S. epidermidis and M. luteus and E. coli and P. aeruginosa and MRSA and C. jeikeium
- Organism, effect (S. epidermidis): S. epidermidis (C)
- Organism, effect (C. jeikeium): C. jeikeium (A)
- Activities (microorganisms): G B

Substance: PF-188: peptide having multiple activities (ARTFAGRLGTRYFGGLMRSTKA; Peptide with targeting and/or antimicrobial activity)
- Target(s) [1, 3]: S. epidermidis and M. luteus and E. coli and C. albicans and MRSA and E. faecalis
- Organism, effect (C. jeikeium): C. jeikeium (H)
- Activities (microorganisms): G B

Substance: PF-190: peptide having multiple activities (HFILRKPLLFMIHSLKTGPLDRF; Peptide with targeting and/or antimicrobial activity)
- Organism, effect (S. epidermidis): S. epidermidis (C)
- Organism, effect (C. jeikeium): C. jeikeium (R)
- Activities (microorganisms): G B

Substance: PF-191: peptide having multiple activities (QFCNFAWLFLASNNAQVSALA; Peptide with targeting and/or antimicrobial activity)
- Organism, effect (MRSA): MRSA (H)
- Target(s) [1, 3]: E. coli; also recorded: P. aeruginosa; also recorded: C. jejuni
- Organism, effect (S. epidermidis): S. epidermidis (A)
- Organism, effect (C. jeikeium): C. jeikeium (R)
- Activities (microorganisms): G B

Substance: PF-196: peptide having multiple activities (TTARYIRRQCHTSITPLSQG; Peptide with targeting and/or antimicrobial activity)
- Organism, effect (S. epidermidis): S. epidermidis (C)
- Organism, effect (C. jeikeium): C. jeikeium (R)
- Activities (microorganisms): G B

Substance: PF-203: peptide having multiple activities (SWKCHHLAI; Peptide with targeting and/or antimicrobial activity)
- Organism, effect (S. epidermidis): S. epidermidis (A)
- Organism, effect (C. jeikeium): C. jeikeium (R)
- Activities (microorganisms): G B

Substance: PF-208: peptide having multiple activities (DAYHCHLVRSPDAHDLSMRIGFV; Peptide with targeting and/or antimicrobial activity)
- Target(s) [1, 3]: S. epidermidis and C. albicans and MRSA and S. pneumoniae and E. faecalis and C. jeikeium and C. jejuni
- Organism, effect (S. epidermidis): S. epidermidis (D)
- Organism, effect (C. jeikeium): C. jeikeium (A)
- Activities (microorganisms): G B
